Patent US4282247A, “5-(2-Hydroxy-3-thiopropoxy) chromone-2-carboxylic acids chemical process and pharmaceutical compositions” (CM Industries, priority 1979, dated 1981)
Where a name gives a salt, the structure may show the parent alone. Read-outs that look alike come from different tables or passages of the source.

Legend:
[1] = LD50 mouse, os; conditions: in vivo, po
[2] = tested on: passive cutaneous anaphylaxis; assay: Inhibition of passive cutaneous anaphylaxis in rats (oral), % versus controls; format: in vivo; conditions: rat, os
Description: The 5-(2-hydroxy-3-thiopropoxy)chromone-2-carboxylic acids, their salts and their esters have been tested in rats by oral route to evaluate their ability to inhibit passive cutaneous anaphylaxis in animals sensitized to egg albumin and Bordetella pertussis.
The percentages of inhibition, in comparison with the controls, of the allergic reaction induced by passive cutaneous anaphylaxis in rats treated with 0.1 ml of an homologous antiserum diluted 1/10 and injected by intradermal route, are summarized in table I.

[3] = tested on: passive cutaneous anaphylaxis; assay: ED50 for inhibition of passive cutaneous anaphylaxis in rats sensitized to egg albumin and Bordetella pertussis, oral and intravenous; format: in vivo; conditions: Table IV, rat
Description: The ability of the 5-(2-hydroxy-3-thiopropoxy) chromone-2-carboxylic acids of the present invention and of the salts and esters thereof of inhibiting--by oral as well as by intravenous route--the passive cutaneous anaphylaxis in rats sensitized to egg albumin and Bordetella pertussis has been compared to that of two reference compounds: […]

[4] = po, Table I, °° P ≤ 0.01, ° P ≤ 0.05 (product B), read-out: Δ % in comparison with controls (inhibition of passive cutaneous anaphylaxis)
[5] = po, Table I, °° significant P ≤ 0.01, read-out: Δ % in comparison with controls (inhibition of passive cutaneous anaphylaxis)
[6] = po, Table III, 10 mg/kg, °° P ≤ 0.01, * non significant (product D), read-out: Δ % in comparison with controls (inhibition of passive cutaneous anaphylaxis)
[7] = po, Table III, °° P ≤ 0.01, * non significant (product D), read-out: Δ % in comparison with controls (inhibition of passive cutaneous anaphylaxis)

| SMILES | LD50 [1] [mg/kg] | change in vivo at 100 mg/kg [2, 4] [%] | ED50 ([3]; i.v., read-out: ED50) [mg/kg] | also measured |
| --- | --- | --- | --- | --- |
| CC(=O)c1ccc(O)c(C(=O)O)c1 [product B, 5-acetylsalicylic acid, reference compound] | ~1000 | -29.2 | – | – |
| CCOC(=O)c1cc(=O)c2c(OCC(O)CSCC)cccc2o1 (stereo not shown) [CM 57249, Ethyl 5-(2-hydroxy-3-ethylthiopropoxy)chromone-2-carboxylate] | > 1000 | -75.8 | – | change in vivo at 50 mg/kg [2, 5]: -73% |
| CCCSCC(O)COc1cccc2oc(C(=O)OCC)cc(=O)c12 (stereo not shown) [CM 57251, Ethyl 5-(2-hydroxy-3-propylthiopropoxy)chromone-2-carboxylate] | > 1000 | -69.1 | – | – |
| CCCCSCC(O)COc1cccc2oc(C(=O)OCC)cc(=O)c12 (stereo not shown) [CM 57193, Ethyl 5-(2-hydroxy-3-butylthiopropoxy)chromone-2-carboxylate] | > 1000 | -70.8 | – | change in vivo at 50 mg/kg [2, 5]: -47.6% |
| CCOC(=O)c1cc(=O)c2c(OCC(O)COC)cccc2o1 (stereo not shown) [product C, ethyl 5-(2-hydroxy-3-methoxypropoxy)chromone-2-carboxylate, reference compound] | – | – | – | change in vivo at 10 mg/kg ([2]; po, Table II, 10 mg/kg, °° P ≤ 0.01, * non significant (product C), read-out: Δ % in comparison with controls (inhibition of passive cutaneous anaphylaxis)): 8.71% |
| CSCC(O)COc1cccc2oc(C(=O)O)cc(=O)c12 (stereo not shown) [CM 57202, 5-(2-hydroxy-3-methylthiopropoxy)chromone-2-carboxylic acid] | – | – | 0.13 | ED50 ([3]; po, os, read-out: ED50): 38.1 mg/kg; change in vivo at 10 mg/kg [2, 6]: -53%; change in vivo at 100 mg/kg [2, 7]: -70.4% |
| CCOC(=O)c1cc(=O)c2c(OCC(O)CSC)cccc2o1 (stereo not shown) [CM 57201, ethyl 5-(2-hydroxy-3-methylthiopropoxy)chromone-2-carboxylate] | > 1000 | -75.1 | 0.11 | ED50 ([3]; po, os, read-out: ED50): 5.39 mg/kg; Δ % in comparison with controls (inhibition of passive cutaneous anaphylaxis) ([2]; Table II, 10 mg/kg, °° P ≤ 0.01, * non significant (product C)): -65.55%; change in vivo at 10 mg/kg ([2]; po, Table I, 10 mg/kg, °° significant P ≤ 0.01, read-out: Δ % in comparison with controls (inhibition of passive cutaneous anaphylaxis)): -65.5% |
| O=C(O)c1ccc2oc3ccc(OCCO)cc3c(=O)c2c1 [product A, 7-(2-hydroxyethoxy)-9-oxoxanthene-2-carboxylic acid, reference compound] | ~1000 | -66.2 | – | – |
| N#Cc1ccc(OCC(O)COc2cccc3oc(C(=O)O)cc(=O)c23)cc1 (stereo not shown) [Product F, 5-(2-hydroxy-3-p-cyanophenoxypropoxy)chromone-2-carboxylic acid, reference compound] | – | – | 0.29 | ED50 ([3]; os): inactive |
| CSCC(O)COc1ccc2c(=O)cc(C(=O)O)oc2c1 (stereo not shown) [product D, 7-(2-hydroxy-3-methylthiopropoxy)chromone-2-carboxylic acid, reference compound] | – | – | – | change in vivo at 10 mg/kg [2, 6]: 17.8%; change in vivo at 100 mg/kg [2, 7]: -16.2%; change in vivo at 200 mg/kg ([2]; po, Table III, 200 mg/kg, ° significant P ≤ 0.05, read-out: Δ % in comparison with controls (inhibition of passive cutaneous anaphylaxis)): -30.1% |
| O=C(O)c1cc(=O)c2c(OCC(O)COc3cccc4oc(C(=O)O)cc(=O)c34)cccc2o1 [Product E, 1,3-bis-(2-carboxy-5-chromonyloxy)propane-2-ol sodium salt, reference compound] | – | – | 1.15 | ED50 ([3]; os): inactive |
| CCOC(=O)c1cc(=O)c2c(OCC(O)CSC(C)C)cccc2o1 (stereo not shown) [CM 57215, Ethyl 5-(2-hydroxy-3-isopropylthiopropoxy)chromone-2-carboxylate] | > 1000 | -75 | – | – |
| CCCCSCC(O)COc1cccc2oc(C(=O)O)cc(=O)c12.O (stereo not shown) [CM 57194, 5-(2-hydroxy-3-butylthiopropoxy)chromone-2-carboxylic acid monohydrate] | > 1000 | -55.4 | – | – |
